Assay results published in patent US20250268855A1, “PHARMACEUTICAL AND NUTRACEUTICAL COMPOSITIONS WITH A COMBINATION OF AMINO ACIDS AND ITS USE IN DISEASES CHARACTERIZED BY LIPID ACCUMULATION IN TISSUES” (FUNDACIÓ EURECAT, priority 2022, published 2025).

Key:
[1] = system: hepatocyte cell line (HepG2); assay: In vitro assay of gene expression in hepatocyte cell line; type: cell-based, human; conditions: HepG2, 24 h; Histidine 10 mM, carnosine 5 mM, cysteine 5 mM, serine 5 mM; vs. control
Protocol: These concentrations were conserved with the different combinations. Data are expressed as mean±SEM; n=3-4 per condition. *p<0.05; **p<0.01, ***p<0.001 vs. vehicle.
An in vitro assay was also carried out using the hepatocyte cell line (HepG2) to test the effect of different combinations of the supplemented amino acids in hepatic expression of key genes of fatty acid beta-oxidation (carnitine palmitoyltransferase, Cpt1a), inflammation (chemokine (C-C motif) ligand 2, CCL2), lipolysis (hormone-sensitive, HSL; and lipin, LPIN) and lipogenesis (fatty acid synthase, FASN). Gene expression was determined by qPCR as previously indicated (see materials and methods in example 1). […] The Cpt1a enzyme is located in the outer membrane, and it is the key enzyme in the carnitine-dependent transport across the mitochondrial inner membrane. Its deficiency results in a decreased rate of fatty acid beta-oxidation.
Data are depicted in FIG. 7, wherein the level of expression (mRNA) is indicated for any of the supplemented media. […]

[2] = system: mice consumed high saturated fat diet; conditions: Mong et al.; cited from earlier work

Compound | Cpt1a mRNA expression (the cited enzyme) [1] | body weight [2] | epididymal fat [2] | hepatic cholesterol levels [2] | hepatic triglyceride levels [2] | hyper-insulinemia [2] | insulin sensitivity [2]
NCCC(=O)N[C@@H](Cc1cnc[nH]1)C(=O)O [carnosine] | trend to reduce the effect | lowered | lowered | lowered | lowered | attenuated | improved
N[C@@H](Cc1c[nH]cn1)C(=O)O [histidine] | – | lowered | lowered | lowered | lowered | attenuated | improved
